These results are taken from patent publication US20240115557A1, “INHIBITORS OF RNA-GUIDED NUCLEASES AND USES THEREOF” (The Brigham and Women's Hospital, Inc., priority 2022, published 2024).

In data set [1] the target is SpCas9:gRNA complex and DNA (Streptococcus pyogenes serotype M1, UniProt Q99ZW2). The data set can be described thus: Fluorescence polarization SpCas9:PAM DNA interaction assay. It counts as binding. An excerpt: The fluorescence Polarization-based Assay may monitor the change in the fluorescence polarization of the fluorophore-labelled PAM-rich target DNA (e.g., a 12PAM-DNA) upon binding to [Cas9:guideRNA] complex.
Fluorescence polarization is a useful technique to monitor the interaction between two molecules, including for example, Cas9-gRNA (ribonucleoprotein) complex and target DNA (e.g., 12PAM).
Fluorescence polarization may be used to measure the binding constants and kinetics of reactions that cause a change in the rotational time of the molecules. The technique is based on the change in the tumbling rate or mass after complexation. […] The degree of binding is calculated by using the difference in anisotropy of the partially bound, free and fully bound (large excess of protein) states measured by titrating the two binding partners. […]
Development of cumulative activity assay (CAA) for SpCas9. Applicants previously reported an assay that uses fluorescence polarization (FP) to monitor the binding between a fluorophore-labeled poly-PAM DNA oligonucleotide and SpCas9 charged with a non-targeting gRNA.^17 This assay permitted screening for small molecules that interfered with the early steps of the SpCas9 catalytic mechanism, namely, binding of SpCas9 and the relatively low-affinity NGG PAM DNA sequence. […]
In general terms: In fluorescence polarisation assays a small probe gives low polarisation when free and higher when bound to something large.

Another data set is described as follows: Plasma stability assay. The class given is in vitro ADME. The following applies: 2 μM, 50% mouse plasma in PBS, 2 h. How it is done:
The stability of the compound in mouse plasma was assessed following a reported protocol.^50 BRD7586 (2 μM) was incubated with 50% mouse plasma (K2 EDTA, BioIVT) in PBS for 2 h in duplicate. Propantheline was included as a control.

In the next data set the test system is HEK293T cells. The data set can be described thus: CellTiter-Glo cell viability assay, HEK293T. The class given is cell-based, human. Particulars: 24 h. How it is done:
HEK293T cells or U2OS.eGFP.PEST cells were plated in a 96-well plate at the density of 30,000 cells per well or 20,000 cells per well, respectively. The next day, cells were treated with indicated amount of compounds for 24 h. Then, cellular ATP levels were measured using CellTiter-Glo Luminescent Cell Viability Assay (Promega) with an EnVision Multilabel Plate Reader (PerkinElmer) at the integration time of 0.5 s per well.

In the next data set the target is SpCas9 (Streptococcus pyogenes serotype M1, UniProt Q99ZW2). The data set can be described thus: HiBiT knock-in assay, SpCas9, HEK293T cells. The class given is cell-based. From the text:
Primary and secondary screening. The primary screen assayed a selection of unique chemical scaffolds derived from commercially available compounds and known bioactive molecular libraries (Table 7). Auto-fluorescent compounds were removed by a counter screen. Overall, the CAA was used to assay 122,409 small molecules with over 2,500 unique chemical scaffolds (FIG. 64F, Table 7). Of these compounds, 547 were selected as hits (Z score >3 in both replicates) for testing in orthogonal cell-based secondary assays. Hits were tested in duplicate in an eGFP disruption assay, wherein U2OS.eGFP.PEST cells^33 transfected with SpCas9 plasmid and eGFP-targeting gRNA plasmid were incubated with 20 μM of the compounds. In this assay, any compound that inhibited SpCas9 would rescue the loss of eGFP fluorescence. Here, toxic and auto-fluorescent compounds with a high GFP signal in cells were removed as false positives. […] Next, Applicants tested the 15 compounds in a luminescence-based gain-of-signal HiBiT knock-in assay, which involves SpCas9-mediated homology-directed tagging of GAPDH with a short peptide that luminesces upon complementation with a subunit derived from nanoluciferase.^34 Complementarily, the eGFP-disruption assay is fluorescence-based and involves error-prone DNA repair. As a counter-screen to remove false positives caused by cell death (viability <80%), the cell viability was measured after incubation.
Approximately 400,000 HEK293T cells were nucleofected with 400 ng of SpCas9 plasmid, 40 ng of GAPDH-targeting gRNA plasmid, and 40 pmol of single-strand oligodeoxynucleotide (ssODN) using SF Cell Line 4D-Nucleofector X Kit (Lonza) following the pulse program of DS-150. For RNP-based genome editing, 10 pmol of Cas9 and 12 pmol of gRNA were mixed and incubated for 5 min. Then, 20 pmol of ssODN was added. Cells were nucleofected with the resulting mixture using the same pulse program. Cells were then transferred to a 96-well plate at the density of 35,000 cells per well, and incubated with indicated amount of compounds for 24 h. Cell viability was measured using PrestoBlue reagent (Thermo) with a SpectraMax M5 (Molecular Devices) at the excitation and emission wavelength of 544 nm and 590 nm, respectively. Next, luminescence measurement was performed using the Nano-Glo HiBiT Lytic Detection System (Promega) according to the manufacturer's protocol with an EnVision Multilabel Plate Reader (PerkinElmer) at the integration time of 0.5 s per well. The resulting luminescence signals were normalized based on the cell viability.^34
For orientation: HiBiT is a short tag that completes a luciferase, so light tracks the accessible tagged protein.

For another data set, the target named is SpCas9:gRNA complex (Streptococcus pyogenes serotype M1, UniProt Q99ZW2). The data set can be described thus: STD NMR binding assay. Particulars: 20 μM compound, 5 μM SpCas9:gRNA. How it is done:
All samples were prepared with 20 μM of BRD7586 in a 20 mM […] buffer (pH 7.4) in D2O with or without 5 μM of SpCas9:gRNA in a 3 mm NMR tube. Experiments were performed on a 600 MHz (^19F: 564.71 MHz) Bruker AVANCE III NMR spectrometer equipped with a 5 mm QCI-F CryoProbe and a SampleJet for automated sample handling. To acquire the spectra, a standard one-pulse STD experiment with WALTZ-16 for proton decoupling during acquisition, a 5 s recycle delay, and 256 scans were used. All spectra were recorded at 280 K. NMR data were apodized with a 1-Hz exponential function prior to Fourier transformation. All spectra were baseline corrected, and peak widths and intensities were extracted using the automated line-fitting feature provided with the MNova software package.

Sequence of SpCas9 (Q99ZW2 whole entry): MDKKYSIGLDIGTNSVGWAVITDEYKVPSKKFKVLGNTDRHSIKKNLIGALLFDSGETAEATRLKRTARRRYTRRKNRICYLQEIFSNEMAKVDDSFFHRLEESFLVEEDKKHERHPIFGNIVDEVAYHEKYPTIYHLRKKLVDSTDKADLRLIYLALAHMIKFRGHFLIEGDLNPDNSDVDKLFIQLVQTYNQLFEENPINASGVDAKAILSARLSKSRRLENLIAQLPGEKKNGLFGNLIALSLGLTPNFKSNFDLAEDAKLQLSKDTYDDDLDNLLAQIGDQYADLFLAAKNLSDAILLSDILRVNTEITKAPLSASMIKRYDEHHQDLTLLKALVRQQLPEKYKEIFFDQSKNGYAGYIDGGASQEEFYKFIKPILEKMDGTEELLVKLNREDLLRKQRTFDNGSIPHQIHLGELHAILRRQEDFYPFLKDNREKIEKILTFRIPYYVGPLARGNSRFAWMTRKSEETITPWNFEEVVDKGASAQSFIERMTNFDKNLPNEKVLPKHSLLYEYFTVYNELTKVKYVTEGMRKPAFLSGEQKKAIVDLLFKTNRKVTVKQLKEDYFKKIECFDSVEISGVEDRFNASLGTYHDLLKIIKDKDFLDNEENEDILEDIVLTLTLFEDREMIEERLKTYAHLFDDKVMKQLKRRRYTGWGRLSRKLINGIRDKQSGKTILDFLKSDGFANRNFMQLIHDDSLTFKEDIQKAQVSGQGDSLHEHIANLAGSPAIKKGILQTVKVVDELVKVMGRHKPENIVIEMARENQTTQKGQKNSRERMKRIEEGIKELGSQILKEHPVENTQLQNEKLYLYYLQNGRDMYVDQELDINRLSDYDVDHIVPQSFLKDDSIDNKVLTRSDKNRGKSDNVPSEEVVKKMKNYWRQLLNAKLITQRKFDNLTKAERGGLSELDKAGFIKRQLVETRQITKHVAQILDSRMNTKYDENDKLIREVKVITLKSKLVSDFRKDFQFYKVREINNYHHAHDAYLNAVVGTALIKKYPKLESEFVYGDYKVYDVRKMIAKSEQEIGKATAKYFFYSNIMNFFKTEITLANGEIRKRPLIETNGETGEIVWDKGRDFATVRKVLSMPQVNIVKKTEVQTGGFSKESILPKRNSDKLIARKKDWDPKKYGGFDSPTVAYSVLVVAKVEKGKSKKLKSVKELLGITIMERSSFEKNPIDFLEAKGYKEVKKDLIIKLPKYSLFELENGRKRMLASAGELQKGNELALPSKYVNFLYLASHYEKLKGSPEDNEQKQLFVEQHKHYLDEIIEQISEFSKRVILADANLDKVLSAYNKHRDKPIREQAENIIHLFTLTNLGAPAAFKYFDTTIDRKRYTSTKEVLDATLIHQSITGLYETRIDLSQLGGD
Sequence of SpCas9:gRNA complex (Q99ZW2 whole entry, one chain of several): as the sequence (Q99ZW2 whole entry) above
Sequence of SpCas9:gRNA complex and DNA (Q99ZW2 whole entry, one chain of several): as the sequence (Q99ZW2 whole entry) above

A word on the EC50: it is the midpoint of the concentration-response curve. Lower therefore signals higher potency in that assay. As for `O=C(CCS(=O)(=O)c1ccc(Cl)cc1)Nc1nc(-c2ccncc2)cs1` [BRD7586], in data set [1], the “Inhibition of binding between SpCas9:gRNA complex and DNA” value is “does not inhibit the binding”. Besides, the “Stability in mouse plasma” value in the data set “Plasma stability assay” is on record as 40%. Besides, in the data set on HEK293T cells, the Cytotoxicity result is given as “without introducing cytotoxicity”. The EC50 is 5.04 µM on SpCas9 (EC50 in HiBit knockin assay, HEK293T, SpCas9 plasmid, sgRNA plasmid and ssODN, 0.06 uM to 20 uM, 24 h (FIG. 44D)); 5.7 ± 0.36 µM on SpCas9 (EC50 in the HiBiT knock-in assay, from three independent experiments). Further, the “STD NMR signal” value at SpCas9:gRNA complex is “observed the STD NMR signal from marked protons”.
